Where two headings read alike, the source gives them in different places. Blank lines part the entries; values can stand above or below the molecule they belong to.
What was measured:
[1] = molecular target: M. mazei mevalonate kinase (Methanosarcina mazei, UniProt Q8PW39); experiment: Mevalonate kinase coupled spectrophotometric kinetic and inhibition assay; type: biochemical; settings: for Vmax / α / kcat / Ka/b: random bireactant system model; for kcat: 80 nM purified enzyme, varying mevalonate and ATP; for Ka/b: Ka(Mev), Kb(ATP)
[2] = molecular target: M. burtonii mevalonate kinase (Methanococcoides burtonii, UniProt Q12TI0); experiment: as above; type: biochemical; settings: for kcat: 40 nM purified enzyme, varying mevalonate and ATP
[3] = tested on: engineered E. coli strains; type: cell-based
[4] = inhibitor added at various concentrations to the reaction mix, read-out: Ki

Sequence of M. burtonii mevalonate kinase (Q12TI0 entry or part of it): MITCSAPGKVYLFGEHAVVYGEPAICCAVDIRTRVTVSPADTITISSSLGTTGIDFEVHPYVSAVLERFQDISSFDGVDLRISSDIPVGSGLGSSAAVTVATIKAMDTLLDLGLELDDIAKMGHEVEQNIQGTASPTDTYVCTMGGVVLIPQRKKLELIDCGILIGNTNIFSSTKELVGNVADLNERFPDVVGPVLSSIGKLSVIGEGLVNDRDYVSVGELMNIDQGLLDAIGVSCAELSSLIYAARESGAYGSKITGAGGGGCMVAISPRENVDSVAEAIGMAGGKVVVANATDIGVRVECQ
Sequence of M. mazei mevalonate kinase (Q8PW39 entry or part of it): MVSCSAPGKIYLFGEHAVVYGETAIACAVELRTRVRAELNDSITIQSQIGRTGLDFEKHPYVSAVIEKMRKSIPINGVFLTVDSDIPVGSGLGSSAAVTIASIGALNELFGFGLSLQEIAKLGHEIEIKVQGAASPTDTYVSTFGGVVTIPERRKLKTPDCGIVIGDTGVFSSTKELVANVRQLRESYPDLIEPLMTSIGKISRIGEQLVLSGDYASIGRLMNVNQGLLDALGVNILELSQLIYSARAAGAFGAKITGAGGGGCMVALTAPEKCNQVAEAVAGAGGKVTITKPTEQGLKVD

SMILES: Nc1ncnc2c1ncn2[C@@H]1O[C@H](COP(=O)(O)OP(=O)(O)OP(=O)(O)O)[C@@H](O)[C@H]1O [ATP, Adenosine triphosphate]
Vmax [1]: 2.14 µM/s | α [1]: 1.62 | kcat [1]: 26.8 s⁻¹ | Ka/b [1]: 460 µM | Ka/b [2]: 212 µM | Vmax ([2]; random bireactant system model): 2.97 µM/s | α ([2]; random bireactant system model): 3.74 | kcat ([2]; random bireactant system model): 74.3 s⁻¹

Ki [1]: > 5 mM | Ki [2]: > 5 mM
SMILES: CC(C)=CCOP(=O)(O)OP(=O)(O)O [DMAPP, dimethylallyl diphosphate, reference compound]

SMILES: CC(C)=CCC/C(C)=C/COP(=O)(O)OP(=O)(O)O [GPP, geranyl pyrophosphate, reference compound]
Ki [1, 4]: > 5 mM | Ki [2, 4]: > 5 mM

Ki [1]: > 5 mM | Ki [2]: > 5 mM
SMILES: C=C(C)CCO[P@@](=O)(O)OP(=O)(O)O [IPP, isopentenyl pyrophosphate, reference compound]

Ki [1, 4]: > 3 mM | Ki [2, 4]: > 3 mM
SMILES: CC(O)(CCOP(=O)(O)O)CC(=O)O (stereo not shown) [MVP, reference compound]

Ki [1, 4]: > 1 mM | Ki [2, 4]: > 5 mM
SMILES: C[C@@](O)(CCOP(=O)(O)OP(=O)(O)O)CC(=O)O [MVPP, reference compound]

SMILES: CC(O)(CCO)CC(=O)O (stereo not shown) [Mevalonate, mevalonate]
growth inhibition by mevalonate ([3]; strain MCM2131, mevalonate between 0 and 16 mM): not inhibited | growth inhibition by mevalonate ([3]; strains MCM2125, MCM2127 and MCM2130, mevalonate 0-16 mM): not inhibited | Vmax [1]: 1.46 µM/s | α [1]: 0.23 | kcat [1]: 18.3 s⁻¹ | Ka/b [1]: 397 µM | Vmax ([2]; random bireactant system model): 1.78 µM/s | α ([2]; random bireactant system model): 0.52 | kcat ([2]; random bireactant system model): 44.4 s⁻¹ | Ka/b ([2]; random bireactant system model, Ka(Mev), Kb(ATP)): 391 µM

Source: patent US10975394B2, “Recombinant microorganisms for enhanced production of mevalonate, isoprene, and isoprenoids” (Danisco US Inc., priority 2011, dated 2021)
